Experimental data reported in article PMC12363342, “Investigating the N-terminal linker histone H1 subtypes as substrates for JmjC lysine demethylases” (RSC Chemical Biology, 2025).
Square brackets hold non-standard residues; d marks the D form. Ends that are not written are not given here. Lys(Me2) = CN(C)CCCC[C@H](N)C(=O)O

Assays:
KDM3B = experiment: LC-MS demethylation activity assay, KDM3B; assay type: biochemical, human; details: 2 μM KDM, 10 μM H1/H3 peptide, 10 μM FAS, 100 μM LAA, 20 μM 2OG, 50 mM HEPES pH 7.5, 2 h, room temperature; for KDM3B demethylation activity, M: M (mono-) initial methylation state; for KDM3B demethylation activity, D: D (di-) initial methylation state
Method: (§1) The substrate specificity of JmjC KDMs for H1 was examined using liquid chromatography coupled to mass spectrometry (LC-MS) assays. The H1 peptides (10 μM) were incubated with the recombinant KDM (2 μM) in HEPES buffer at pH 7.5 at room temperature for 2 h, in the presence of ferrous(II) ammonium sulfate (FAS, 10 μM), sodium ascorbate (LAA, 100 μM) and 2OG (20 μM), and then quenched with formic acid. N^ε-Methylated H3K9 and H3K36 peptides were used as positive controls (Fig. 3–5 and Fig. S2–S6).[26]
(§2) The catalytic domains of the JmjC KDMs used were recombinantly produced as reported in either Escherichia coli (KDM4AM1-L359,[38] KDM4DM1-L359,[39] KDM4EM1-R336,[30] KDM6BD1141–E1590[40] and KDM3CL2157-L2500) or Sf9 cells (KDM3AT515–S1317, KDM3B882–1761, and KDM5DM1-D775) as N-terminally His6-tagged proteins. […] To produce proteins, DNA sequences encoding for KDM3A, KDM3B and KDM5D were inserted into the pFB-LIC vector, containing a TEV-protease cleavable N-terminal 6x-histidine tag via ligation independent cloning (LIC). The resultant plasmids were transformed into baculovirus and Sf9 cells ([…]) which were infected with the virus stock. The cells were grown at 27 °C and 90 rpm for 70 h. Cells were then harvested and suspended in 100 mL of lysis buffer (50 mM HEPES-NaOH, pH 7.4, 500 mM NaCl, 20 mM imidazole, 0.5 mM Tris (2-carboxyethyl)phosphine (TCEP), 5% (v/v) glycerol). […] The supernatant was loaded onto a Ni-NTA gravity column, washed with 10 column volume of lysis buffer and eluted using the elution buffer (50 mM HEPES-NaOH, pH 7.4, 500 mM NaCl, 300 mM imidazole, 0.5 mM TCEP, 5% (v/v) glycerol). The eluted protein was further purified using S200 gel filtration column chromatography (50 mM HEPES-NaOH, pH 7.4, 150 mM NaCl, 0.5 mM TCEP and 5% glycerol). Protein purity was analysed by SDS-PAGE and further confirmed by mass spectrometry. Selected fractions were pooled, concentrated and stored at −80 °C.
(§3) All reagents were purchased from Sigma Aldrich and were of the highest grade available. Ferrous(II) ammonium sulfate (FAS) solutions were prepared freshly by dissolving FAS to 400 mM in 20 mM HCl with subsequent dilution to 1 mM using deionized water. Fresh 2OG (10 mM) and LAA (50 mM) solutions were prepared by dissolving the solids in deionised water. All enzyme reactions were performed in 384-well plates (Greiner Bio-One) with a final reaction volume of 50 μL. Substrate mixtures contained 50 mM HEPES pH 7.5, LAA (100 μM), FAS (10 μM), 2OG (20 μM) and an H1 isoform peptide (10 μM). Reactions were initiated by the addition of enzyme to a final concentration of 2.0 μM. After 2 h, the reactions were stopped by the addition of 5 μL of 10% (v/v) LC-MS grade formic acid (Fisher Scientific) to a final concentration of 1% (v/v). Product analyses were performed by liquid chromatography-mass spectrometry (LC-MS) using an Agilent 1290 infinity II LC system equipped with an Agilent 1290 multisampler and an Agilent 1290 high speed pump and connected to an Agilent 6550 accurate mass iFunnel quadrupole time of flight (Q-TOF) mass spectrometer. 1 μL of the reaction mixture was injected onto a 1.8 μm × 2.1 × 50 mm ZORBAX RRHD Eclipse Plus C18 column (Agilent). Solvent A consisted of HPLC grade water containing 0.1% (v/v) formic acid and solvent B consisted of MeCN containing 0.1% (v/v) formic acid. Peptides were separated using a stepwise gradient (0 min – 95% solvent A, 1.0 min – 80% solvent A, 3.0 min – 45% solvent A, 4.0 min – 45% solvent A, 5.0 min – 0% solvent A, 6.0 min – 0% solvent A, 7.0 min – 95% solvent A). This was followed by a 3 min post-run with 95% solvent A to re-equilibrate the column. All flow rates were 0.2 mL min^−1. A blank injection of HPLC grade water was carried out between each sample injection.

KDM4A = experiment: LC-MS demethylation activity assay, KDM4A; assay type: biochemical, human; details: 2 μM KDM, 10 μM H1/H3 peptide, 10 μM FAS, 100 μM LAA, 20 μM 2OG, 50 mM HEPES pH 7.5, 2 h, room temperature; for KDM4A demethylation activity, M: M (mono-) initial methylation state; for KDM4A demethylation activity, D: D (di-) initial methylation state
Method: as §1, §2, §3

KDM4D = molecular target: T1, KDM4D (Homo sapiens, UniProt Q6B0I6); experiment: LC-MS demethylation activity assay, KDM4D; assay type: biochemical; details: 10 μM FAS, 100 μM LAA, 20 μM 2OG, room temperature; for KDM4D demethylation activity, M / KDM4D demethylation activity, D: 2 μM KDM, 10 μM H1/H3 peptide, 50 mM HEPES pH 7.5, 2 h; for KDM4D demethylation activity, M: M (mono-) initial methylation state; for substrate conversion (demethylation) by KDM4D: 2 μM KDM4D, 10 μM peptide, HEPES pH 7.5, 2 h; for KDM4D demethylation activity, D: D (di-) initial methylation state
T1 construct: KDM4AM1-L359,[38]; KDM4DM1-L359,[39]; KDM4EM1-R336,[30]; His6 (N); made in house; host or cells: Escherichia coli
T1 sequence (Q6B0I6 1-359): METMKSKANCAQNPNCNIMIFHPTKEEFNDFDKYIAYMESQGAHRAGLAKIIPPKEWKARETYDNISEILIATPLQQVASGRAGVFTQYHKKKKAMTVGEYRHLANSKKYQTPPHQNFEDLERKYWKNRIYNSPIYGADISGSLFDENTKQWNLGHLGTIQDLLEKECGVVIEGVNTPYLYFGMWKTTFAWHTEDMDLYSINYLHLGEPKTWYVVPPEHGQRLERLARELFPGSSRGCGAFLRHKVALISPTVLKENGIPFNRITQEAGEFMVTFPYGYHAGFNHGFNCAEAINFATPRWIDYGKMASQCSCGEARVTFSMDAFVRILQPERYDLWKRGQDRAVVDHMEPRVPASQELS
Method: as §1, §2, §3

KDM3A = experiment: LC-MS demethylation activity assay, KDM3A; assay type: biochemical, human; details: 2 μM KDM, 10 μM H1/H3 peptide, 10 μM FAS, 100 μM LAA, 20 μM 2OG, 50 mM HEPES pH 7.5, 2 h, room temperature; for KDM3A demethylation activity, M: M (mono-) initial methylation state; for KDM3A demethylation activity, D: D (di-) initial methylation state
Method: as §1, §2, §3

KDM3C = experiment: LC-MS demethylation activity assay, KDM3C; assay type: biochemical, human; details: 2 μM KDM, 10 μM H1/H3 peptide, 10 μM FAS, 100 μM LAA, 20 μM 2OG, 50 mM HEPES pH 7.5, 2 h, room temperature; for KDM3C demethylation activity, M: M (mono-) initial methylation state; for KDM3C demethylation activity, D: D (di-) initial methylation state
Method: as §1, §2, §3

KDM5D = experiment: LC-MS demethylation activity assay, KDM5D; assay type: biochemical, human; details: 2 μM KDM, 10 μM H1/H3 peptide, 10 μM FAS, 100 μM LAA, 20 μM 2OG, 50 mM HEPES pH 7.5, 2 h, room temperature; for KDM5D demethylation activity, M: M (mono-) initial methylation state; for KDM5D demethylation activity, D: D (di-) initial methylation state
Method: as §1, §2, §3

KDM6B = experiment: LC-MS demethylation activity assay, KDM6B; assay type: biochemical, human; details: 2 μM KDM, 10 μM H1/H3 peptide, 10 μM FAS, 100 μM LAA, 20 μM 2OG, 50 mM HEPES pH 7.5, 2 h, room temperature; for KDM6B demethylation activity, M: M (mono-) initial methylation state; for KDM6B demethylation activity, D: D (di-) initial methylation state
Method: as §1, §2, §3

KDM4E = molecular target: T2, KDM4E (Homo sapiens, UniProt B2RXH2); experiment: LC-MS demethylation activity assay, KDM4E; assay type: biochemical; details: room temperature; for mono-methylated product formed by KDM4E: 2 μM KDM4E, 10 μM peptide, standard conditions, 2 h; for KDM4E demethylation activity, D / KDM4E demethylation activity, M: 2 μM KDM, 10 μM H1/H3 peptide, 10 μM FAS, 100 μM LAA, 20 μM 2OG, 50 mM HEPES pH 7.5, 2 h; for KDM4E demethylation activity, D: D (di-) initial methylation state; for KDM4E demethylation activity, M: M (mono-) initial methylation state
T2 construct: KDM4DM1-L359,[39]; KDM4EM1-R336,[30]; His6 (N); made in house; host or cells: Escherichia coli
T2 sequence (B2RXH2 1-336): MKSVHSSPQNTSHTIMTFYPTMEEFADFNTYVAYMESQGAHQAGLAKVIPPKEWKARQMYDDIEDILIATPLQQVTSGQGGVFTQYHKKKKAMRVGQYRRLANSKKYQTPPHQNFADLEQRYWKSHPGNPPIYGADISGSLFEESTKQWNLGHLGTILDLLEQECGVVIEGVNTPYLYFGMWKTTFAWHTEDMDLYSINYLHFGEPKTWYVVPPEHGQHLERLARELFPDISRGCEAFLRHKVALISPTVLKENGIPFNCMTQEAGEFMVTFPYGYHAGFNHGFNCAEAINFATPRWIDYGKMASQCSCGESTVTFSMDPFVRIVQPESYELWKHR
Method: as §1, §2, §3

Row | Substance | KDM4D demethylation activity, M (KDM4D) | mono-methylated product formed by KDM4E (KDM4E) [%] | KDM4E demethylation activity, D (KDM4E) | substrate conversion (demethylation) by KDM4D (KDM4D) | KDM4D demethylation activity, D (KDM4D) | KDM4E demethylation activity, M (KDM4E) | KDM3B demethylation activity, M (KDM3B) | KDM4A demethylation activity, M (KDM4A) | KDM3A demethylation activity, M (KDM3A) | KDM3C demethylation activity, M (KDM3C) | KDM5D demethylation activity, M (KDM5D) | KDM6B demethylation activity, M (KDM6B) | KDM3B demethylation activity, D (KDM3B) | KDM4A demethylation activity, D (KDM4A) | KDM3A demethylation activity, D (KDM3A) | KDM3C demethylation activity, D (KDM3C) | KDM5D demethylation activity, D (KDM5D) | KDM6B demethylation activity, D (KDM6B)
1 | KKKAAK[Lys(Me2)]AGGTPRKA [Peptide H1.2K26me2, 15-mer linker histone H1.2 residues 20-34 peptide, di-methylated K26] | – | ~64 | ● [green] (green dots indicate good demethylation (>50% conversion)) | 20–35% | ● [yellow] (yellow dots indicate moderate demethylation (<50% conversion)) | – | – | – | – | – | – | – | ● [red] | ● [red] | ● [red] | ● [red] | ● [red] | ● [red]
2 | KKKAAKmeKAGGTPRKA [Peptide H1.2K25me, 15-mer linker histone H1.2 residues 20-34 peptide, mono-methylated K25] | ● [red] | – | – | – | – | ● [red] | ● [red] | ● [red] | ● [red] | ● [red] | ● [red] | ● [red] | – | – | – | – | – | –
3 | KKKAA[Lys(Me2)]KAGGTPRKA [Peptide H1.2K25me2, 15-mer linker histone H1.2 residues 20-34 peptide, di-methylated K25] | – | ~64 | ● [red] | 20–35% | ● [red] | – | – | – | – | – | – | – | ● [red] | ● [black] (black dots indicate low-level demethylation (<10% conversion)) | ● [red] | ● [red] | ● [red] | ● [red]
4 | KKKAK[Lys(Me2)]AGATAGKRK [Peptide H1.3K25me2, 15-mer linker histone H1.3 residues 20-34 peptide, di-methylated K25] | – | – | ● [red] | – | ● [red] | – | – | – | – | – | – | – | ● [red] | ● [red] | ● [red] | ● [red] | ● [red] | ● [red]
5 | KKKARKmeSAGAAKRKA [Peptide H1.4K25me, 15-mer linker histone H1.4 residues 20-34 peptide, mono-methylated K25] | ● [black] (black dots indicate low-level demethylation (<10% conversion)) | – | – | – | – | – | ● [red] | ● [red] | ● [red] | ● [red] | ● [red] | ● [red] | – | – | – | – | – | –

Second part, led by results:

Row | KDM4D demethylation activity, M (KDM4D) | mono-methylated product formed by KDM4E (KDM4E) [%] | KDM4E demethylation activity, D (KDM4E) | substrate conversion (demethylation) by KDM4D (KDM4D) | KDM4D demethylation activity, D (KDM4D) | KDM4E demethylation activity, M (KDM4E) | Substance | KDM3B demethylation activity, M (KDM3B) | KDM4A demethylation activity, M (KDM4A) | KDM3A demethylation activity, M (KDM3A) | KDM3C demethylation activity, M (KDM3C) | KDM5D demethylation activity, M (KDM5D) | KDM6B demethylation activity, M (KDM6B) | KDM3B demethylation activity, D (KDM3B) | KDM4A demethylation activity, D (KDM4A) | KDM3A demethylation activity, D (KDM3A) | KDM3C demethylation activity, D (KDM3C) | KDM5D demethylation activity, D (KDM5D) | KDM6B demethylation activity, D (KDM6B)
6 | ● [red] | – | – | – | – | – | KKKAAKKmeAGGTPRKA [Peptide H1.2K26me, 15-mer linker histone H1.2 residues 20-34 peptide, mono-methylated K26] | ● [red] | ● [red] | ● [red] | ● [red] | ● [red] | ● [red] | – | – | – | – | – | –
7 | ● [red] | – | – | – | – | ● [red] | KKKAKKmeAGATAGKRK [Peptide H1.3K25me, 15-mer linker histone H1.3 residues 20-34 peptide, mono-methylated K25] | ● [red] | ● [red] | ● [red] | ● [red] | ● [red] | ● [red] | – | – | – | – | – | –
8 | ● [red] | – | – | – | – | – | KKKAKmeKAGATAGKRK [Peptide H1.3K24me, 15-mer linker histone H1.3 residues 20-34 peptide, mono-methylated K24] | ● [red] | ● [red] | ● [red] | ● [red] | ● [red] | ● [red] | – | – | – | – | – | –
